Where two headings read alike, the source gives them in different places.
What was measured:
M. morganii ATCC-25830 = test: Antimicrobial activity test: MIC by the agar plate dilution method, M. morganii ATCC-25830; assay type: cell-based; conditions: inoculum 1×10^6 cells/ml
Procedure: (§1) In order to investigate the in vitro activity of the under-mentioned compounds against various bacteria, the minimal inhibitory concentration (MIC) values were determined by the agar plate dilution method [see Chemotherapy, 22, 1126-1128 (1974)].
(§2) Each test inoculum was adjusted to 1×10^6 cells/ml (O.D., 600 mμ: 0.07-0.16).

E. coli No. 29 = test: Antimicrobial activity test: MIC by the agar plate dilution method, E. coli No. 29; assay type: cell-based
Procedure: as §1, §2

K. pneumoniae NCTC-9632 = test: Antimicrobial activity test: MIC by the agar plate dilution method, K. pneumoniae NCTC-9632; assay type: cell-based; conditions: inoculum 1×10^6 cells/ml
Procedure: as §1, §2

S. aureus FDA-209-p = test: Antimicrobial activity test: MIC by the agar plate dilution method, S. aureus FDA-209-p; assay type: cell-based, Staphylococcus aureus; conditions: inoculum 1×10^6 cells/ml
Procedure: as §1, §2

P. mirabilis 1287 = test: Antimicrobial activity test: MIC by the agar plate dilution method, P. mirabilis 1287; assay type: cell-based; conditions: P. mirabilis 1287; inoculum 1×10^6 cells/ml
Procedure: as §1, §2

P. aeruginosa NCTC-10490 = test: Antimicrobial activity test: MIC by the agar plate dilution method, P. aeruginosa NCTC-10490; assay type: cell-based; conditions: inoculum 1×10^6 cells/ml
Procedure: as §1, §2

S. marcescens IFO-12648 = test: Antimicrobial activity test: MIC by the agar plate dilution method, S. marcescens IFO-12648; assay type: cell-based
Procedure: as §1, §2

[1] = E. coli No. 29, inoculum 1×10^6 cells/ml
[2] = S. marcescens IFO-12648, inoculum 1×10^6 cells/ml

Substance | MIC (M. morganii ATCC-25830) [mg/L] | MIC (E. coli No. 29; [1]) [mg/L] | MIC (K. pneumoniae NCTC-9632) [mg/L] | MIC (S. aureus FDA-209-p) [mg/L] | MIC (P. mirabilis 1287) [mg/L] | MIC (P. aeruginosa NCTC-10490) [mg/L] | MIC (S. marcescens IFO-12648; [2]) [mg/L] | MIC (E. coli No. 29) [mg/L] | MIC (S. marcescens IFO-12648) [mg/L]
Benzhydryl 7-[2-(2-tritylaminothiazol-4-yl)-2-[(2-butenyl)oxyimino]acetamido]-3-[(1,3,4-thiadiazol-2-yl)thiomethyl]-Δ^3 -O-2-isocephem-4-carboxylate (syn-isomer) [Example 37] | 0.78 | 0.2 | 0.39 | 0.78 | 0.2 | 1.56 | 1.56 | – | –
7-[2-(2-Aminothiazol-4-yl)-2-[(3-butenyl)oxyimino]acetamido]-3-[(1,3,4-thiadiazol-2-yl)thiomethyl-]-Δ^3 -O-2-isocephem-4-carboxylic acid trifluoroacetate (syn-isomer) [Example 40] | 3.13 | – | 3.13 | 6.25 | 6.25 | 25 | 12.5 | 3.13 | –
7-[2-(2-Chloroacetamidothiazol-4-yl)-2-methoxyiminoacetamido]-3-[(carbamoyloxy)methyl]-Δ^3 -O-2-isocephem-4-carboxylic acid (syn-isomer) [Example 8] | 0.1 | 0.2 | 0.2 | 0.78 | 0.05 | 1.56 | – | – | 0.39
1-Acetoxyethyl 7-[2-(2-aminothiazol-4-yl)-2-methoxyiminoacetamido]-3-[(1,3,4-thiadiazol-2-yl)thiomethyl]-Δ^3 -O-2-isocephem-4-carboxylate (syn-isomer) [Example 13] | 0.39 | – | 0.78 | 0.39 | 0.1 | 0.78 | – | 0.39 | 0.78
Benzhydryl 7-[2-(2-tritylaminothiazol-4-yl)-2-cyclopropylmethyloxyiminoacetamido-]-3- (1,3,4-thiadiazol-2-yl)thiomethyl]-Δ^3 -O-2-isocephem-4-carboxylate (syn-isomer) [Example 35] | 0.39 | 0.2 | 0.2 | 0.2 | 0.2 | 0.39 | – | – | 0.39
Benzyl 7-[2-(2-chloroacetamidothiazol-4-yl)-2-cyclopentyloxyiminoacetamido]-3-[(1,3,4-thiadiazol-2- yl)thiomethyl]-Δ^3 -O-2-isocephem-4-carboxylate (syn-isomer) [Example 25] | ≤ 0.025 | ≤ 0.025 | 0.05 | 1.56 | ≤ 0.025 | 0.78 | 0.2 | – | –
Benzyl 7-[2-(2-trifluoroacetamidothiazol-4-yl)-2-methoxyiminoacetamido]-3-[(carbamoyloxy)methyl]-Δ^3 -O-2-isocephem-4-carboxylate (syn-isomer) [Example 4] | ≤ 0.025 | 0.05 | 0.1 | 0.78 | ≤ 0.025 | 6.25 | 0.2 | – | –
Benzhydryl 7-[2-(2-tritylaminothiazol-4-yl)-2-propargyloxyiminoacetamido]-3-[(1,3,4-thiadiazol-2-yl)thiomethyl]-Δ^3 -O-2-isocephem-4-carboxylate (syn-isomer) [Example 21] | 0.05 | 0.1 | 0.2 | 3.13 | ≤ 0.025 | 3.13 | – | – | 0.39
Benzyl 7-[2-(2-trichloroacetamidothiazol-4-yl)-2-methoxyiminoacetamido]-3-[(carbamoyloxy)methyl]-Δ^3 -O-2-isocephem-4-carboxylate (syn-isomer) [Example 5] | 0.05 | 0.1 | 0.1 | 3.13 | ≤ 0.025 | 25 | 0.2 | – | –
7-[2-(2-Aminothiazol-4-yl)-2-[(2-butenyl)oxyimino]acetamido]-3-[(1,3,4-thiadiazol-2-yl)thiomethyl]-Δ^3 -O-2-isocephem-4-carboxylic acid trifluoroacetate (syn-isomer) [Example 38] | 0.39 | 0.1 | 0.2 | 0.39 | 0.2 | 1.56 | – | – | 0.78
